{"source": "paper PMC10410440", "about": "“Preclinical PK investigation of a novel IDO1/TDO dual inhibitor—SHR9146 in mouse plasma and tissues by LC-MS/MS” (Frontiers in Oncology, 2023)", "origin": "cited, not measured here", "key": {"[1]": {"test_system": "advanced solid tumors", "design": "method as in doi:10.1200/JCO.2021.39.15_suppl.3101", "details": "SHR9146 plus camrelizumab in combination with/without apatinib; cited from earlier work"}, "[2]": {"test_system": "colon cancer (MC38) cells", "design": "method as in earlier work", "details": "SHR9146 combined with the PD-1 antibody vs single PD-1 antibody or SHR9146, and vs PD-1 antibody combined with INCB024360 or NLG0919100; cited from earlier work"}}, "data": [{"smiles": "OCCn1cc(-c2ccc(N3CCC([C@H]4c5c(F)cccc5-c5cncn54)CC3)cc2)cn1", "note": "[SHR9146]", "values": [{"measurement": "antitumor activity and safety in patients", "setting": "[1]", "result": "promising antitumor activity with acceptable safety"}, {"measurement": "inhibitory effect on colon cancer (MC38) cells", "setting": "[2]", "result": "significantly better inhibitory effect"}]}]}
